Reference: US20240270748A1 (Merck Patent GmbH, priority 2021, published 2024)
Where a name gives a salt, the structure may show the parent alone.

tested on: YAP-TEAD interaction; experiment: SK-HEP-1 reporter assay (8xTEAD responsive elements driving NanoLuc luciferase); type: cell-based; conditions: Homo sapiens, SK-HEP1, SK-HEP-1 reporter assay; class symbols
Procedure: To identify inhibitors of YAP-TEAD interaction, 8×TEAD responsive elements driving the NanoLuc® luciferase gene were stably integrated into SK-HEP-1 cells (ECACC #: 91091816).
For the assay, cells were treated in duplicates with the test compounds in a 10-point dose, with the top concentration starting at 30 μM (final concentration in assay). After a 24 hour incubation at 37° C., 95% rH, and 5% CO2, a luciferase substrate/lysis reagent mix (NanoGlo™, Promega) was added to the cells, allowing the quantification of cellular luciferase activity.
Cell Media: The cells were cultured in the following media: MEM, +10% FBS, +1× GlutaMAX, +1 mM Sodium-Pyruvate, +100 μM Non-essential amino acids, +0.1 mg/ml Hygromycin. The media used for the assay was: MEM (w/o Phenol Red), +10% FBS, +1× GlutaMAX, +1 mM Sodium-Pyruvate, +100 μM Non-essential amino acids, +0.5% Pen/Strep
Reagents: The reagents used are listed below:
Cell culture: The cells were examined using an inverted microscope to check for health and cell density. To dissociate adherent cells, the monolayer of cells was washed once with pre-warmed PBS. After removing the PBS, 3 ml pre-warmed Accutase® was added to a F75 flask, dispersed evenly and the flask was allowed to sit in incubator for ˜4-5 minutes.
When a single cell suspension was obtained, 7 ml of prewarmed growth media was added and resuspended with the cells. The cell suspension was transferred to a sterile 15 ml conical centrifuge tube, and spun for 5 min at 300×g, RT. The supernatant was discarded and the pellet was resuspended in 10 ml of pre-warmed growth media.
The total cell count was determined, and 20 μl of the desired cell number was added to each well of a 384 well plate using a Multidrop Combi. The plates were then incubated for 24 hours at 37° C., 95% rH, and 5% C02.
Compound treatment: 24 hours after seeding, the cells were treated with compounds.
A 1:333 dilution of compounds, diluted in DMSO, was made to get a final concentration of 0.3% DMSO per well. To transfer the compounds to the assay plate, […] was shot from Labcyte low dead volume plates to the cell plates containing 20 μl media/well with the ECHO 555 liquid handling system.
After treatment, the cells were fed with 20 μl fresh pre-warmed assay media using a Multidrop combi.
The assay plates were then incubated for another 24 h at 37° C., 95% rH, and 5% CO2.
Luciferase readout: 24 h after treatment, the plates were taken out of the incubator and were allowed to equilibrate to RT. 30 μl of NanoGlo® reagent was added to the plates in the dark. Plates were shaken for 20 min on a Teleshake (˜1500 rpm) in the dark. The luminescence was then measured using an EnVision microplate reader. The IC50 values were generated using Genedata Screener®.

| IC50 [nM] | Compound |
| --- | --- |
| 100 to 10000 | Cn1cc2c3cc(C(=O)N4CC(C#N)C4)ccc3n(-c3ccc(C(F)(F)F)cc3)c2n1 [Example C59, 1-{2-methyl-8-[4-(trifluoromethyl)phenyl]-2H,8H-pyrazolo[3,4-b]indole-5-carbonyl}azetidine-3-carbonitrile] |
| 100 to 10000 | Cn1cc2c3cc(S(=O)(=O)O)ccc3n(-c3ccc(C(F)(F)F)cc3)c2n1 [Example C43, 2-methyl-8-[4-(trifluoromethyl)phenyl]-2H,8H-pyrazolo[3,4-b]indole-5-sulfonic acid] |
| > 10000 | Cn1cc2c3cc(C4CC(n5ccnn5)=NO4)ccc3n(-c3ccc(C(F)(F)F)cc3)c2n1 (stereo not shown) [Example C37, 1-(5-{2-methyl-8-[4-(trifluoromethyl)phenyl]-2H,8H-pyrazolo[3,4-b]indol-5-yl}-4,5-dihydro-1,2-oxazol-3-yl)-1H-1,2,3-triazole] |
| 100 to 10000 | Cn1cc2c3cc(C(=O)N=S4(=O)CCC5(CCNCC5)C4)ccc3n(-c3ccc(C(F)(F)F)cc3)c2n1 (stereo not shown) [Example C138, 2-methyl-N-{2-oxo-2lambda6-thia-8-azaspiro[4.5]decan-2-ylidene}-8-[4-(trifluoromethyl)phenyl]-2H,8H-pyrazolo[3,4-b]indole-5-carboxamide] |
| 100 to 10000 | Cn1cc2c3nc(CO)ccc3n(-c3ccc(C(F)(F)F)cc3)c2n1 [Example C116, {4-methyl-7-[4-(trifluoromethyl)phenyl]-4,5,7,12-tetraazatricyclo [6.4.0.0^2,6]dodeca-1(8),2,5,9,11-pentaen-11-yl}methanol] |
| 100 to 10000 | Cn1cc2c3cc(C(=O)NC[C@@H](O)C(F)(F)F)ccc3n(-c3ccc(C(F)(F)F)cc3)c2n1 [Example C135, 2-methyl-N-[(2R)-3,3,3-trifluoro-2-hydroxypropyl]-8-[4-(trifluoromethyl)phenyl]-2H,8H-pyrazolo[3,4-b]indole-5-carboxamide] |
| > 10000 | Cn1cc2c(n1)c1cc(S(=O)(=O)N3CCC[C@@H]3c3cccnc3)ccc1n2-c1ccc(C(F)(F)F)cc1 [Example C8, 3-[(2R)-1-({2-methyl-4-[4-(trifluoromethyl)phenyl]-2H,4H-pyrazolo[4,3-b]indol-7-yl}sulfonyl)pyrrolidin-2-yl]pyridine] |
| 100 to 10000 | CC(N)CS(C)(=O)=NC(=O)c1ccc2c(c1)c1cn(C)nc1n2-c1ccc(C(F)(F)F)cc1 (stereo not shown) [Example C145, N-[(2-aminopropyl)(methyl)oxo-λ^6-sulfanylidene]-2-methyl-8-[4-(trifluoromethyl)phenyl]-2H,8H-pyrazolo[3,4-b]indole-5-carboxamide] |
| 100 to 10000 | Cc1noc(C(CO)NC(=O)c2ccc3c(c2)c2cn(C)nc2n3-c2ccc(C(F)(F)F)cc2)n1 (stereo not shown) [Example C268, N-[2-hydroxy-1-(3-methyl-1,2,4-oxadiazol-5-yl)ethyl]-2-methyl-8-[4-(trifluoromethyl)phenyl]-2H,8H-pyrazolo[3,4-b]indole-5-carboxamide] |
| 100 to 10000 | CCN1CCC(NC(=O)c2ccc3c(c2)c2cn(C)nc2n3-c2ccc(C(F)(F)F)cc2)CC1 [Example C136, N-(1-ethylpiperidin-4-yl)-2-methyl-8-[4-(trifluoromethyl)phenyl]-2H,8H-pyrazolo[3,4-b]indole-5-carboxamide trifluoroacetate] |
| 100 to 10000 | Cn1cc2c3cc(NC(=O)Cc4cccnc4)ccc3n(-c3ccc(C(F)(F)F)cc3)c2n1 [Example C23, N-{2-methyl-8-[4-(trifluoromethyl)-phenyl]-2H,8H-pyrazolo[3,4-b]indol-5-yl}-2-(pyridin-3-yl)acetamide] |
| 100 to 10000 | [2H]C1([2H])C(n2c3ccc(C(=O)N[C@H](C)CO)cc3c3cn(C)nc32)C([2H])([2H])C([2H])([2H])C([2H])([2H])C1([2H])[2H] [Example C197] |
| > 10000 | Cn1cc2c3cc(C(=O)NC4CCNCC4(F)F)ccc3n(-c3ccc(C(F)(F)F)cc3)c2n1 (stereo not shown) [Example C217, N-(3,3-difluoropiperidin-4-yl)-2-methyl-8-[4-(trifluoromethyl)phenyl]-2H,8H-pyrazolo[3,4-b]indole-5-carboxamide] |
| 100 to 10000 | Cn1cc2c3cc(N(S(C)(=O)=O)S(C)(=O)=O)ccc3n(-c3ccc(C(F)(F)F)cc3)c2n1 [Example C19, N-methanesulfonyl-N-{2-methyl-8-[4-(trifluoromethyl)phenyl]-2H,8H-pyrazolo[3,4-b]indol-5-yl}methanesulfonamide] |
| 10 to 100 | CNC(=O)c1ccc2c(c1)c1cn(C)nc1n2C1CC2(C1)CC(F)(F)C2 [Example C206, 8-{6,6-difluorospiro[3.3]heptan-2-yl}-N,2-dimethyl-2H,8H-pyrazolo[3,4-b]indole-5-carboxamide] |
| 100 to 10000 | Cn1cc2c3cc(C(=O)NC(CO)c4nncn4C)ccc3n(-c3ccc(C(F)(F)F)cc3)c2n1 (stereo not shown) [Example C267, N-[2-hydroxy-1-(4-methyl-4H-1,2,4-triazol-3-yl)ethyl]-2-methyl-8-[4-(trifluoromethyl)phenyl]-2H,8H-pyrazolo[3,4-b]indole-5-carboxamide] |
| > 10000 | Cn1cc2c3cc(C4CC(n5nccn5)=NO4)ccc3n(-c3ccc(C(F)(F)F)cc3)c2n1 (stereo not shown) [Example C38, 2-(5-{2-methyl-8-[4-(trifluoromethyl)phenyl]-2H,8H-pyrazolo[3,4-b]indol-5-yl}-4,5-dihydro-1,2-oxazol-3-yl)-2H-1,2,3-triazole] |
| 10 to 100 | Cn1nc2c3cc(C4CC(Oc5cncnc5)=NO4)ccc3n(-c3ccc(C(F)(F)F)cc3)c2n1 (stereo not shown) [Example C234, 5-[(5-{2-methyl-4-[4-(trifluoromethyl)-phenyl]-2H,4H-[1,2,3]triazolo[4,5-b]indol-7-yl}-4,5-dihydro-1,2-oxazol-3-yl)oxy]pyrimidine] |
| 1 to 10 | CCn1cc2c3cc(C(=O)N[C@@H](CO)c4ccccn4)ccc3n(-c3ccc(C(F)(F)F)cc3)c2n1 [Example C256, 2-ethyl-N-[(1R)-2-hydroxy-1-(pyridin-2-yl)ethyl]-8-[4-(trifluoromethyl)phenyl]-2H,8H-pyrazolo[3,4-b]indole-5-carboxamide] |
| 100 to 10000 | CC(CNC(=O)c1ccc2c(c1)c1cn(C)nc1n2-c1ccc(C(F)(F)F)cc1)c1ccc(F)nc1 (stereo not shown) [Example B92] |
| 100 to 10000 | Cn1cc2c3nc(C(N)=O)ccc3n(-c3ccc(C(F)(F)F)cc3)c2n1 [Example C229, 4-methyl-7-[4-(trifluoromethyl)phenyl]-4,5,7,12-tetraazatricyclo[6.4.0.0^2,6]dodeca-1(8),2,5,9,11-pentaene-11-carboxamide] |
| 100 to 10000 | Cn1cc2c3cc(C(=O)N=S4(=O)CC5(CNC5)C4)ccc3n(-c3ccc(C(F)(F)F)cc3)c2n1 [Example C271, 2-methyl-N-{2-oxo-2¿6-thia-6-azaspiro[3.3]heptan-2-ylidene}-8-[4-(trifluoromethyl)phenyl]-2H,8H-pyrazolo[3,4-b]indole-5-carboxamide Formate] |
| 10 to 100 | Cn1cc2c3cc(C4CC(F)(F)C(=O)N4)ccc3n(-c3ccc(C(F)(F)F)cc3)c2n1 (stereo not shown) [Example C275, 3,3-difluoro-5-{2-methyl-8-[4-(trifluoromethyl)phenyl]-2H,8H-pyrazolo[3,4-b]indol-5-yl}pyrrolidin-2-one] |
| 10 to 100 | Cn1cc2c3cc(C(=O)N=S4(=O)CC(N)C4)ccc3n(-c3ccc(C(F)(F)F)cc3)c2n1 (stereo not shown) [Example C270, N-(3-amino-1-oxo-1¿6-thietan-1-ylidene)-2-methyl-8-[4-(trifluoromethyl)phenyl]-2H,8H-pyrazolo[3,4-b]indole-5-carboxamide formate] |

same assay, conditions: Homo sapiens, SK-HEP1, SK-HEP-1 reporter assay; n.d. = value not detectable below threshold given in parentheses; ND = not determinable within the entire range

| IC50 [nM] | Compound |
| --- | --- |
| > 3200 | Cn1cc2c3cc(C(=O)N=S4(=O)CCC5(CC4)CC(N)CCO5)ccc3n(-c3ccc(C(F)(F)F)cc3)c2n1 (stereo not shown) [Example C143, N-{4-amino-9-oxo-1-oxa-9lambda6-thiaspiro[5.5]undecan-9-ylidene}-2-methyl-8-[4-(trifluoromethyl)phenyl]-2H,8H-pyrazolo[3,4-b]indole-5-carboxamide] |
| > 30000 | Cn1cc2c(n1)c1cc(S(=O)(=O)N3C[C@H](O)C[C@@H]3c3ccccc3)ccc1n2-c1ccc(C(F)(F)F)cc1 (single isomer, unassigned) [Example C40] |
| > 1000 | Cn1cc2c(n1)c1cc(S(=O)(=O)N3C[C@@H](O)C[C@@H]3c3ccccc3)ccc1n2-c1ccc(C(F)(F)F)cc1 (single isomer, unassigned) [Example C45] |
| > 10000 | Cn1cc2c(n1)c1cc(S(=O)(=O)N3C[C@@H](O)C[C@H]3c3ccccc3)ccc1n2-c1ccc(C(F)(F)F)cc1 (single isomer, unassigned) [Example C47] |
